Data reported in US20200163984A1, “USE OF ISOVALERYL SPIRAMYCIN I, II AND/OR III IN MANUFACTURING MEDICAMENT FOR TREATING AND/OR PREVENTING TUMOR, AND MEDICAMENT” (SHENYANG FUYANG PHARMACEUTICAL TECHNOLOGY CO., LTD., priority 2017, published 2020).

System: transplanted tumor of human glioblastoma cell A172
Settings: 50 mg/kg
Description: Then cell concentration was adjusted to 1×10^7/ml with matrigel, then each nude mouse was inoculated subcutaneously with 0.2 ml of cells at its right armpit and recorded as the first day of inoculation. When the tumor grows to be greater than or equal to 100 mm^3, the mice were randomly divided into 11 groups with 6 mice in each group: a model group, a temozolomide group, […], […], […] Each group was continuously administered intragastrically for 30 days with a dose of 20 ml/kg. The mice were sacrificed the next day after drug withdrawal and the indicators were tested. The long diameter and short diameter of the tumor, and the body weight of each mouse were recorded every 3 days from drug administration to nude mouse sacrifice.
The body weight of the nude mice and the long diameter (a) and short diameter (b) of the transplanted tumor were measured every 3 days, and the tumor volume (v), relative tumor volume (RTV) and relative tumor proliferation rate (T/C) are calculated respectively according to the following formulas, wherein V=a×b^2/2; RTV=V/V0 (V0 is the tumor volume before administration, V is the tumor volume before sacrifice), and T/C (%)=treatment group RTV/model control group RTV×100%.
Each mouse was weighed and sacrificed. After the tumor was completely stripped off from the body of the mouse, the non-tumor tissues such as blood stains and fat were removed to weigh the tumor and calculate the tumor growth inhibition rate. The average tumor weight of each group of mice is used as an indicator of efficacy. Tumor growth inhibition rate (%)=(1−the average tumor weight of the treatment group/the average tumor weight of the model group)×100%.

`Cn1nnc2c(C(N)=O)ncn2c1=O` [temozolomide, reference compound] was tested, and the “Inhibition Rate (%)” value (A172 nude mice) was 68.89%, the “Relative Tumor Proliferation Rate (T/C)” value (A172 nude mice) was 61.35% and the “Relative Tumor Volume (RTV)” value (A172 nude mice) was 4.12 ± 2.03. For the same compound, the “Tumor Weight” value (A172 nude mice) was 0.43 ± 0.06 g, the “Tumor Volume (mm3) (d 1)” value (A172 nude mice, d1) was 116.6 ± 10.91 mm3 and the “Tumor Volume (mm3) (d30)” value (A172 nude mice, d30) was 482.11 ± 89.74 mm3. For the same compound, the “Body Weight (g) (d1)” value (mouse, in vivo) was 21.07 ± 0.57 g and the “Body Weight (g) (d30)” value (mouse, in vivo) was 19.83 ± 1.24 g.
